Consider 7 compounds from ChEMBL document CHEMBL1201862, “PubChem BioAssay data set” (2004).

The structures appear in SMILES notation.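 Dose response: 5 concentrations. Exposure: 48 h. Format: 96-well plates. Endpoint: linear interpolation; highest concentration if not reached. At the GI50, growth is halved.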 Active and inactive are the calls of the source. Rule as the data show it: active = GI50 up to about 1.1 µM and inactive = higher.

Common to all, as to assay: NCI anticancer screen, dose series, 48 h
In experiment [1] the test system is MOLT-4.
Experiment [2] has as its system BT-549.
Experiment [3] deals with OVCAR-5.
The subject of experiment [4] is COLO 205.
For experiment [5], the system named is KM12.
The test system of experiment [6] is SR.
The subject of experiment [7] is HOP-92.
Experiment [8] relates to UACC-62.
For experiment [9], the system named is MDA-N.
The test system of experiment [10] is HCT-116.
Experiment [11] relates to ACHN.
The subject of experiment [12] is T47D.
The test system of experiment [13] is SNB-19.
The test system of experiment [14] is PC-3.
Experiment [15] deals with NCI-H23.
Experiment [16] has as its system OVCAR-4.
The test system of experiment [17] is A549.
The test system of experiment [18] is DU-145.
For experiment [19], the system named is UO-31.
Experiment [20] concerns K562.

As for `CCOn1c(C2(CC3CCN(C(=O)c4ccccc4)CC3)OCCO2)cc2ccccc21`, the GI50 in experiment [1] is 12.8 µM (inactive); in [2] it was 19.4 µM (inactive); in experiment [3], 19 µM (inactive); in experiment [4] it was 16.4 µM (inactive); in [5], 15.8 µM (inactive); in [6], 6.27 µM (inactive). For the same compound, the GI50 was 10.9 µM (inactive) in experiment [7]; 11 µM (inactive) in [8]; 16.5 µM (inactive) in [9]; 15.8 µM (inactive) in experiment [10]; 14.6 µM (inactive) in [11]; 18.9 µM (inactive) in [12]. The GI50 in experiment [13] was 16.7 µM (inactive); in experiment [14], 12.6 µM (inactive); in experiment [15], 19.5 µM (inactive); in [16] it was 15.2 µM (inactive); in [17] it was 16.9 µM (inactive); in [18], 18.1 µM (inactive). For the same compound, the GI50 in experiment [19] was 14 µM (inactive); in experiment [20] it was 11.4 µM (inactive).
Turning to `COc1ccc2c(c1)C1=NCCN(C)c3ccc([N+](=O)[O-])c(c31)N2`, the GI50 in experiment [1] was 0.705 µM (active); in experiment [2] it was 2.91 µM (inactive); in experiment [3], 2.19 µM (inactive); in experiment [4], 0.533 µM (active); in experiment [5], 1.21 µM (inactive); in experiment [6], 2.88 µM (inactive). The GI50 was 1.4 µM (inactive) in experiment [7]; 1.1 µM (active) in [8]; 0.546 µM (active) in [9]; 0.312 µM (active) in experiment [10]; 0.465 µM (active) in experiment [11]; 2.66 µM (inactive) in experiment [12]. Further, the GI50 is 0.652 µM (active) in experiment [13]; 0.583 µM (active) in experiment [14]; 0.891 µM (active) in experiment [15]; 0.685 µM (active) in experiment [16]; 0.525 µM (active) in experiment [17]; 1.02 µM (active) in [18]. The GI50 is 0.555 µM (active) in [19] and 12.2 µM (inactive) in [20].
In the case of `O=C(Nc1nncs1)NS(=O)(=O)n1c(=S)sc2ccccc21`, the GI50 in experiment [1] is 42.4 µM (inactive); in experiment [2] it was > 100 µM (inactive); in [3], > 100 µM (inactive); in experiment [4], > 100 µM (inactive); in [5] it was > 100 µM (inactive); in [6], 36.4 µM (inactive). Besides, the GI50 in experiment [7] is > 100 µM (inactive); in [8], > 100 µM (inactive); in experiment [9] it was > 100 µM (inactive); in [10], > 100 µM (inactive); in experiment [11] it was > 100 µM (inactive); in [12], 88.9 µM (inactive). For the same compound, the GI50 in experiment [13], in [14], in experiment [15], in experiment [16], in experiment [17] and in [18] was > 100 µM (inactive) throughout. In addition, the GI50 in experiment [19] and in experiment [20] was > 100 µM (inactive) throughout.
For `COc1ccc(N/N=C2\C3=C(CCC(C)(C)O3)C(=O)c3ccccc32)cc1`, the GI50 was 18.1 µM (inactive) in [1]; 19.1 µM (inactive) in experiment [2]; 19.4 µM (inactive) in experiment [3]; 22.9 µM (inactive) in experiment [4]; 13.4 µM (inactive) in experiment [5]; 12.6 µM (inactive) in experiment [6]. For the same compound, the GI50 was 21.1 µM (inactive) in [7]; 14.5 µM (inactive) in [8]; 15.6 µM (inactive) in [9]; 14.1 µM (inactive) in [10]; 13.7 µM (inactive) in experiment [11]; 2.51 µM (inactive) in experiment [12]. In addition, the GI50 was 21.9 µM (inactive) in experiment [13]; 21.9 µM (inactive) in experiment [14]; 18 µM (inactive) in experiment [15]; 18.3 µM (inactive) in experiment [16]; 16.6 µM (inactive) in experiment [17]; 25.2 µM (inactive) in [18]. The GI50 in [19] was 18.1 µM (inactive); in experiment [20] it was 15.9 µM (inactive).
For the compound `COC1/C=C\C=C(/C)C(=O)NC2=CC(=O)C(O)=C(CC(C)CC(OC)C(O)C(C)/C=C(\C)C1OC(N)=O)C2=O` (stereo not given), the GI50 in experiment [1] was 0.0959 µM (active); in [2], 40.5 µM (inactive); in experiment [3], 11.5 µM (inactive); in [4], 0.0422 µM (active); in experiment [5], 0.649 µM (active); in [6], 0.0406 µM (active). Moreover, the GI50 was 0.382 µM (active) in [7]; 0.382 µM (active) in experiment [8]; 0.0364 µM (active) in experiment [9]; 0.267 µM (active) in experiment [10]; 2.81 µM (inactive) in [11]; 7.05 µM (inactive) in experiment [12]. Also, the GI50 in [13] is 15.8 µM (inactive); in experiment [14], 0.253 µM (active); in [15], 0.482 µM (active); in experiment [16], 10.3 µM (inactive); in experiment [17], 4.79 µM (inactive); in experiment [18], 0.115 µM (active). The GI50 in experiment [19] was 3.95 µM (inactive); in experiment [20] it was 0.137 µM (active).
Take `COc1ccc2nc3cc([N+](=O)[O-])ccc3c(NNc3ccc([N+](=O)[O-])cc3)c2c1`: the GI50 in experiment [1] was 25.5 µM (inactive); in experiment [2], 43.1 µM (inactive); in experiment [3], 3.91 µM (inactive); in [4], 17.2 µM (inactive); in experiment [5] it was 24.5 µM (inactive); in [6] it was 32.5 µM (inactive). Besides, the GI50 in experiment [7] was 26.7 µM (inactive); in [8], 3.37 µM (inactive); in experiment [9] it was 30.5 µM (inactive); in experiment [10], 5.69 µM (inactive); in [11], 46.9 µM (inactive); in experiment [12] it was 37.6 µM (inactive). For the same compound, the GI50 in experiment [13] is 24 µM (inactive); in experiment [14], 22.4 µM (inactive); in experiment [15] it was 28.4 µM (inactive); in [16], 57.4 µM (inactive); in experiment [17], 7.18 µM (inactive); in experiment [18], 47.8 µM (inactive). In addition, the GI50 in experiment [19] is 24.7 µM (inactive); in experiment [20] it was 7.19 µM (inactive).
On to `O=C1C(c2cnc3ccccc3n2)=C(O)c2ccccc21`, for which the GI50 is > 70.5 µM (inactive) in experiment [1]; > 100 µM (inactive) in experiment [2]; > 70.1 µM (inactive) in [3]; 43.2 µM (inactive) in [4]; 7.08 µM (inactive) in experiment [5]; > 59.7 µM (inactive) in experiment [6]. The GI50 in [7] was > 100 µM (inactive); in experiment [8], > 100 µM (inactive); in experiment [9], > 61.4 µM (inactive); in [10], > 95.7 µM (inactive); in experiment [11] it was > 86.5 µM (inactive); in experiment [12], 83.6 µM (inactive). In addition, the GI50 in experiment [13] is > 85.3 µM (inactive); in [14] it was > 46.6 µM (inactive); in experiment [15] it was > 100 µM (inactive); in experiment [16], > 53.6 µM (inactive); in [17] it was > 81.8 µM (inactive); in [18], > 100 µM (inactive). Besides, the GI50 was > 100 µM (inactive) in experiment [19] and > 86.9 µM (inactive) in experiment [20].
